Patent US20250332173A1, “COMPOUNDS AND METHODS FOR MODULATING NUCLEIC ACID SPLICING” (REMIX THERAPEUTICS INC., priority 2021, published 2025)
Like-named read-outs stand apart in the source and are kept apart here.

Legend:
Target C = test: HiBiT protein abundance assay, Target C HiBiT K562 cell line; type: cell-based; details: Homo sapiens; HiBiT lytic detection, modified K562 cells, 24 hours, top dose 10 μM; read-out: Effect on protein abundance, Target C (IC50)
Protocol: • Promega Nano-Glo HiBiT Lytic Detection System (cat #N3030) • Corning 384-well TC-treated microplates (cat #3570) • Synthego Engineered Cells Knock-In Clones
Cells were maintained in IMDM with 10% FBS. Before the assay, cells were diluted with […] growth media (IMDM+[…] media) and were seeded in a 384-well plate at a density of 10,000 cells/well (for each cell line listed in Table 5). Each compound was prepared as a 10-point 3-fold serial dilution in DMSO with the top dose at a final concentration of 10 μM in the well. Unmodified K562 cells were added at the previously specified density with DMSO to serve as an assay baseline and positive control (PC) and DMSO only with the respective modified cell lines was added to the negative control (NC) columns. Final DMSO concentration was kept at or below 0.25%. Treated cell plates were placed in an incubator at 37° C. with […] for 24 hours. After 24 hours, 25 μL of Complete HiBit Lytic reagent was added to each well at room temperature (e.g. one plate requiring 10 mL Lytic Buffer, 100 μL LgBiT Protein, 200 μL Lytic Substrate), shaken for 5 minutes at 600 RPM, then left to sit for 10 minutes for signal to stabilize before reading on a Spark Cyto plate reader (Tecan) with a 500 ms measurement time.
To determine compound effects on protein abundance of each target in Table 5, the percent response for each respective cell line was calculated at each compound concentration as follows:
For the normalized response at each concentration, a four-parameter logistical regression was fit to the data and the response was interpolated at the […] to determine a concentration for protein abundance at […] the untreated control.

[1] = test system: K562 (human chronic myelogenous leukemia) cells; test: Cell Titer Glo 2.0 cell viability assay; type: cell-based; details: Homo sapiens, K562, 72 h, K562 cells, 72 hours, Cell Titer Glo 2.0; read-out: K562 GI50
HTT mRNA = test: RT-qPCR splicing assay, HTT canonical junction (CJ) and alternative junction (AJ) mRNA; type: cell-based, human; details: Homo sapiens; for AC50: increase in HTT alternative junction (AJ) mRNA, read-out: HTT AJ AC50
Method in brief: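 24 h treatment, 37 °C/5% CO2; A673 or K562; 11-pt 3-fold series, top 10 uM final; DMSO ≤0.25%. Cell lysis with DNase I, then 1-step RT-qPCR. Housekeeping normalization: PPIA (A673), GAPDH or GUSB (K562).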

[2] = decrease in HTT canonical junction (CJ) mRNA, RT-qPCR, read-out: HTT CJ IC50
[3] = canonical junction qPCR panel, Table 5, read-out: HTT (decrease in CJ mRNA levels, IC50)

SMILES | IC50 (Target C) [nM] | GI50 [1] [nM] | IC50 (HTT mRNA; [2]) [nM] | IC50 (HTT mRNA; [3]) [nM] | AC50 (HTT mRNA; RT-qPCR) [nM]
Cn1cc2cc(-c3ccc4c(=O)n(C5CCNC6(CC6)C5)ncc4n3)c(O)cc2n1 (stereo not drawn) [Compound 1306] | 100 to 1000 | 100 to 1000 | 100 to 1000 | 100 to 1000 | 100 to 1000
CCN1CCC(n2ncc3nc(-c4cc5cn(C)nc5cc4O)ccc3c2=O)CC1 [Compound 1310] | 1000 to 10000 | 100 to 1000 | 1000 to 10000 | 100 to 1000 | 100 to 1000
Cc1c(O)c(-c2ncc3c(=O)n(C4C[C@@H](C)N[C@H](C)C4)ccc3n2)cc2cn(C)nc12 (stereo partly drawn) [Compound 1454, 6-[(2R,6R)-2,6-dimethyl-4-piperidyl]-2-(6-hydroxy-2,7-dimethyl-indazol-5-yl)pyrido[4,3-d]pyrimidin-5-one] | – | 100 to 1000 | 1000 to 10000 | 100 to 1000 | 100 to 1000
Cc1c(O)c(-c2ncc3c(=O)n(C4C[C@H](C)N[C@@H](C)C4)ccc3n2)cc2cn(C)nc12 (stereo partly drawn) [Compound 1455, 6-[(2S,6S)-2,6-dimethyl-4-piperidyl]-2-(6-hydroxy-2,7-dimethyl-indazol-5-yl)pyrido[4,3-d]pyrimidin-5-one] | – | < 100 | 100 to 1000 | 100 to 1000 | 100 to 1000
Cc1cn2cc(-c3cc(F)c4c(=O)n([C@@H]5CNC[C@H]5F)ccc4c3)cc(F)c2n1 [Compound 1456] | – | 1000 to 10000 | > 10000 | > 10000 | > 10000
Cc1cn2cc(-c3ncc4c(=O)n([C@@H]5CCNC6(CC6)C5)ccc4n3)cc(F)c2n1 [Compound 1457, 6-[(7R)-4-azaspiro[2.5]octan-7-yl]-2-(8-fluoro-2-methyl-imidazo[1,2-a]pyridin-6-yl)pyrido[4,3-d]pyrimidin-5-one] | – | 100 to 1000 | 1000 to 10000 | 100 to 1000 | 100 to 1000

The next lines start with results.

IC50 (Target C) [nM] | GI50 [1] [nM] | IC50 (HTT mRNA; [2]) [nM] | IC50 (HTT mRNA; [3]) [nM] | SMILES | AC50 (HTT mRNA; RT-qPCR) [nM]
< 100 | 100 to 1000 | < 100 | < 100 | Cc1cn2nc(-c3ccc4c(=O)n(C5CCNCC5)ncc4n3)cc(C)c2n1 [Compound 1247] | < 100
1000 to 10000 | 1000 to 10000 | 1000 to 10000 | 1000 to 10000 | CN1CCC(n2ncc3nc(-c4cc5cn(C)nc5cc4O)ccc3c2=O)CC1 [Compound 1307] | 1000 to 10000
100 to 1000 | 100 to 1000 | 100 to 1000 | < 100 | CCN1CCC(n2ncc3nc(-c4cc(C)c5nc(C)cn5n4)ccc3c2=O)CC1 [Compound 1308] | < 100
100 to 1000 | 100 to 1000 | 100 to 1000 | < 100 | Cc1cn2nc(-c3ccc4c(=O)n(C5CCN(CCF)CC5)ncc4n3)cc(C)c2n1 [Compound 1309] | < 100
100 to 1000 | 100 to 1000 | 100 to 1000 | 100 to 1000 | Cc1cn2nc(-c3ccc4c(=O)n(C5CCN(C)CC5)ncc4n3)cc(C)c2n1 [Compound 1311] | 100 to 1000
